From patent publication US4232010A, “Calcium-antagonistic composition” (Kanebo, Ltd., priority 1978, dated 1980)
Read-outs that look alike come from different tables or passages of the source.

What was measured:
[1] = test system: isolated guinea-pig heart; assay: Action on coronary blood flow, isolated guinea-pig heart (Langendorff); settings: Cavia porcellus, dosage 10 γ/heart, read-out: Maximum increase in coronary flow (Δ% ± standard error)
Method: Male guinea-pigs with body weights from 400 to 500 g were slaughtered and promptly thoractomized. After the ascending aorta was cannulated, the heart was enucleated. By the method of Langendorff, this isolated heart was perfused with the Krebs-Henseleit fluid oxygenated with a gaseous mixture of 95% O2 and 5% CO2 at a fluid temperature of 34°±1° C. and perfusion pressure of 60 cm H2 O, and the test compound was infused. The coronary flows before and after infusion were measured and the percent gain in coronary flow was obtained. The coronary flow was measured with a square-wave electromagnetic flowmeter (Nihon Kohden, MF-26) with an extracorporeal probe (Nihon Kohden, FE) set at the top of the cannula and recorded with a multipurpose polygraph (Nihon Kohden, RM-85). The test compound was dissolved in propylene glycol to a concentration of 100 γ/ml and 0.1 ml of the solution was infused at the rate of 0.1 ml/min.

[2] = Acute toxicity test in mice, intraperitoneal; settings: mouse, in vivo, ip, male ddY mice, deaths within 72 hours
Method: An acute toxicity test was performed in male ddY mice (in groups of 5 animals, body weights 20±2 g) by the intraperitoneal administration of a test compound.
A suspension of each compound in 0.5% carboxymethylcellulose was administered, the deaths within 72 hours were counted and the LD50 values were calculated by the method of Weil.

taenia coli = target: T1, taenia coli (Cavia porcellus, UniProt O35505); assay: Calcium antagonist activity (pA2), isolated guinea-pig taenia coli; settings: 5 cases, read-out: pA2 (mean ± standard error) of calcium antagonist activity (converted)
T1 construct: a test was conducted using isolated taenia colis about 2 cm long; from tissue; host or cells: isolated guinea-pig taenia coli
T1 sequence (O35505 whole entry): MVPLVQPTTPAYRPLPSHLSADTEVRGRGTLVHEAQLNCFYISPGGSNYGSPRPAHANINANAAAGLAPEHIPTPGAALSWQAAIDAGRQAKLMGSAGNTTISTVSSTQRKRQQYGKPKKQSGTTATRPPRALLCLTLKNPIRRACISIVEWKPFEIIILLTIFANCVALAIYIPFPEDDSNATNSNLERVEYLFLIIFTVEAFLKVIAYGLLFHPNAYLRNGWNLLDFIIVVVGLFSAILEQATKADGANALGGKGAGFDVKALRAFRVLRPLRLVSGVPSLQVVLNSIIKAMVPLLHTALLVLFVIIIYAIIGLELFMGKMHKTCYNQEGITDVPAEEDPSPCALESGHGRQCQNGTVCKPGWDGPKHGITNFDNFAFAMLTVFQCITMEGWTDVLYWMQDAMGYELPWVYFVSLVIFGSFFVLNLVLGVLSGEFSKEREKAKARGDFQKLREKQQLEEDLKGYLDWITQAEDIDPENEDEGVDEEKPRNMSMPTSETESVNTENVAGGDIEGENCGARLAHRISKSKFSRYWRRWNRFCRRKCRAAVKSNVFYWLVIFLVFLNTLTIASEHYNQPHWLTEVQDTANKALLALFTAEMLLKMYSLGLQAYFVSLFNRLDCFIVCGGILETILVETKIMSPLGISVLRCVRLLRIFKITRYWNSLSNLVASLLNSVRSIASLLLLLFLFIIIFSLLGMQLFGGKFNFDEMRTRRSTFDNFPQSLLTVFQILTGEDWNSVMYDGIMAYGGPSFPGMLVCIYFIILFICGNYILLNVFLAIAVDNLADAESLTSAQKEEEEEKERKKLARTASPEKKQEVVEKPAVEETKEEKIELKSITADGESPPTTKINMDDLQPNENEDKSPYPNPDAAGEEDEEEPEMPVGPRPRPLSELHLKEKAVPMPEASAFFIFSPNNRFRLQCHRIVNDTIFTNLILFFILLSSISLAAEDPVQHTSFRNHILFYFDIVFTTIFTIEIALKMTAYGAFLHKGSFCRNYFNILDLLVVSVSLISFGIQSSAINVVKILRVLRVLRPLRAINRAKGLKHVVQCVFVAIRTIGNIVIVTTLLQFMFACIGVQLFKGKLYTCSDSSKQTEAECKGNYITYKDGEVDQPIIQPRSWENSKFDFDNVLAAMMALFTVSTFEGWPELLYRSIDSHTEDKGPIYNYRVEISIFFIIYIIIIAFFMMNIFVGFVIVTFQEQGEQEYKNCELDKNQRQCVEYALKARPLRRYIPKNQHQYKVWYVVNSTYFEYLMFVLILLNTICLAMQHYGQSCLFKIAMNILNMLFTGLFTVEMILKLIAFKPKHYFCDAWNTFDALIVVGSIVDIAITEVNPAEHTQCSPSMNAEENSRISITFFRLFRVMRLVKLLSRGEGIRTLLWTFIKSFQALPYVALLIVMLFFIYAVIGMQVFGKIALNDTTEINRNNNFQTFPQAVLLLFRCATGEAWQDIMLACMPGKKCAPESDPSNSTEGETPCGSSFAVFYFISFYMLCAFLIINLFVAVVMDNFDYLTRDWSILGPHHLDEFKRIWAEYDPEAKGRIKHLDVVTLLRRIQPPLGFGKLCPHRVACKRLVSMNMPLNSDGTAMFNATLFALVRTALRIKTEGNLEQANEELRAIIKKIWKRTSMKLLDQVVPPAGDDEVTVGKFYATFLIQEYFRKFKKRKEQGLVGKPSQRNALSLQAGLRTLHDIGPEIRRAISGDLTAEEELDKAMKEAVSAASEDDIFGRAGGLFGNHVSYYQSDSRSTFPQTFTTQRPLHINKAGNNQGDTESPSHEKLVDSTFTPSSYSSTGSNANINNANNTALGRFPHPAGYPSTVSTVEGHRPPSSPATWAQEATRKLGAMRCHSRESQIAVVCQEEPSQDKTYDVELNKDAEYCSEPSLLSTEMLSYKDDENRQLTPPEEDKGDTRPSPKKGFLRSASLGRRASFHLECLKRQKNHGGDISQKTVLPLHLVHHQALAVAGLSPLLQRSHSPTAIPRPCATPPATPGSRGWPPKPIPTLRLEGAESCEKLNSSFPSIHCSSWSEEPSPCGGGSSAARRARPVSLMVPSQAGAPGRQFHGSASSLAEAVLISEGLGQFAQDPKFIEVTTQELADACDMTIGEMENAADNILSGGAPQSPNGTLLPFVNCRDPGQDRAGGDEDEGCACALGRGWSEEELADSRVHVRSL
Method: (§1) Male guinea-pigs weighing 350-450 g each were slaughtered and a test was conducted using isolated taenia colis about 2 cm long. A taenia coli was suspended in a Magnus chamber (Locke solution, 25°±2° C., aerated) and the contractile response of the taenia coli was recodered through an isotonic transducer. To the decalcified taenia coli was cumulatively added 0.1 to 100 mM of calcium in the presence of 6×10^-3 g/ml of K^+ to obtain a dose-contraction curve for calcium and, after the taenia coli was decalcified again, a dose-contraction curve for calcium was determined in the presence of the test compound. Based on the difference between the responses, the pA2 of calcium antagonist activity of the test compound was computed.

[3] = test system: coronary flow and blood pressure; assay: Action on coronary flow and blood pressure (intravenous administration into dogs); assay type: in vivo, dog; settings: 0.2 mg/kg
Method: Dogs weighing 11 to 24 kg were anaesthetized with pentobarbital sodium (35 mg/kg, intraperitoneal) and, under supportive respiration, a right thoractomy was performed by removing the fourth rib. The pericardial membrane was then incised to expose the heart. The coronary sinus flow was measured with a cannula inserted from the right auricle into the coronary sinus and connected to an electromagnetic flowmeter (Nihon Kohden K.K., MF-26.) The outflowing blood was returned to the femoral vein through a rubber tubing.
The blood pressure was measured with a pressure transducer (Nihon Kohden K.K., MPU-0.5) connected to the cannula inserted into the femoral artery, and was recorded with a multipurpose polygraph (Nihon Kohden K.K., RM-85) which also recorded the coronary blood flow. The heart rate was calculated based on the electrocardiogram. The test compound was dissolved in dog serum and injected into the femoral vein.

[4] = target: T2, taenia coli (Cavia porcellus); assay: Calcium antagonist activity (pA2), isolated guinea-pig taenia coli
T2 construct: a test was conducted using isolated taenia colis about 2 cm long; from tissue; host or cells: isolated guinea-pig taenia coli
T2 sequence (O35505 whole entry): as above
Method: as §1

[5] = test system: coronary flow and blood pressure; assay: Activity on intraduodenal administration to dogs (coronary flow, blood pressure, heart rate); assay type: in vivo, dog; settings: 10 mg/kg
Method: Dogs weighing 12 to 22 kg were anaesthetized with pentobarbital sodium [35 mg/kg, i.p.] and under supportive respiration, a left thoractomy was performed at the fourth interspace. The pericardium was incised to expose the heart and the blood flow through circumflex branch of left coronary was measured with an electromagnetic flowmeter (Nihon Kohden K.K., MF-26). The blood pressure was measured from a cannula inserted into the carotid artery through a pressure transducer (Nihon Kohden K.K., MPU-0.5), while the heart rate was calculated based on the electrocardiogram. The abdomen was sutured with the end of the cannula left out of the body and the test compound was administered. The test compound was diluted with 0.5% CMC to a concentraion of 10 mg/ml and administered at a dose of 10 mg/kg.

[6] = time after administration 5 (unit not given)
[7] = time after administration 30 (unit not given)
[8] = time after administration 60 (unit not given)
[9] = time after administration 120 (unit not given)

SMILES: CC(C)OP(=O)(Cc1ccc(-c2nc3ccccc3s2)cc1)OC(C)C [1-(benzothiazol-2-yl)-4-di-iso-propyloxyphosphinylmethylbenzene]
- activation at 10 µg/heart [1]: 90.7 ± 31.7%
- LD50 at 72 h [2]: 1660 mg/kg
- Kb (taenia coli; test compound 3 × 10^-6 g/ml): 776 nM

SMILES: CCCCOP(=O)(Cc1ccc(-c2nc3ccccc3s2)cc1)OCCCC [1-(benzothiazol-2-yl)-4-di-n-butyloxyphosphinylmethylbenzene]
- activation at 10 µg/heart [1]: 65.1 ± 22.8%
- LD50 at 72 h [2]: > 2250 mg/kg

SMILES: CCCOP(=O)(Cc1ccc(-c2nc3ccccc3s2)cc1)OCCC [1-(benzothiazol-2-yl)-4-di-n-propyloxyphosphinylmethylbenzene]
- activation at 10 µg/heart [1]: 65.1 ± 12.2%
- LD50 at 72 h [2]: > 2250 mg/kg

SMILES: CCOP(=O)(Cc1ccc(-c2nc3ccccc3s2)cc1)OCC [1-(benzothiazol-2-yl)-4-diethoxyphosphinylmethylbenzene]
- activation at 10 µg/heart [1]: 83.8 ± 9%
- LD50 at 72 h [2]: 962 mg/kg
- Change in heart rate (Δbeats/min. ± standard error) [3]: -11.2 ± 2.1 Δbeats/min.
- Increase in coronary senus outflow (Δ% ± standard error) [3]: 42.8 ± 6.2 Δ%
- Mean change in blood pressure (ΔmmHg ± standard error) [3]: -10.0 ± 3.6 ΔmmHg
- Kb [4]: 120 nM

SMILES: COP(=O)(Cc1ccc(-c2nc3ccccc3s2)cc1)OC [1-(benzothiazol-2-yl)-4-dimethoxyphosphinylmethylbenzene]
- activation at 10 µg/heart [1]: 38.5 ± 13.6%
- LD50 at 72 h [2]: 1070 mg/kg

SMILES: CC(C)OP(=O)(Cc1ccc(-c2nc3ccccc3s2)nc1)OC(C)C [2-(benzothiazol-2-yl)-5-di-iso-propyloxyphosphinylmethylpyridine]
- activation at 10 µg/heart [1]: 79.9 ± 13.1%
- LD50 at 72 h [2]: > 2250 mg/kg
- Kb (taenia coli; test compound 1 × 10^-6 g/ml): 2570 nM

SMILES: CCCCOP(=O)(Cc1ccc(-c2nc3ccccc3s2)nc1)OCCCC [2-(benzothiazol-2-yl)-5-di-n-butyloxyphosphinylmethylpyridine]
- activation at 10 µg/heart [1]: 50.3 ± 10.8%
- Kb (taenia coli; test compound 1 × 10^-6 g/ml): 4070 nM

SMILES: CCCOP(=O)(Cc1ccc(-c2nc3ccccc3s2)nc1)OCCC [2-(benzothiazol-2-yl)-5-di-n-propyloxyphosphinylmethylpyridine]
- activation at 10 µg/heart [1]: 66 ± 21.6%
- LD50 at 72 h [2]: 713 mg/kg
- Kb (taenia coli; test compound 1 × 10^-6 g/ml): 1120 nM

SMILES: CCOP(=O)(Cc1ccc(-c2nc3ccccc3s2)nc1)OCC [2-(benzothiazol-2-yl)-5-diethoxyphosphinylmethylpyridine]
- Change in heart rate (Δbeats/min. ± standard error) [5, 6]: -5.6 ± 1.2 Δbeats/min.
- Increase in blood flow through circumflex branch of left coronary (Δ% ± standard error) [5, 6]: 14.3 ± 7.4 Δ%
- Mean change in blood pressure (ΔmmHg ± standard error) [5, 6]: -12.9 ± 3.4 ΔmmHg
- Change in heart rate (Δbeats/min. ± standard error) [5, 7]: -23.3 ± 3.8 Δbeats/min.
- Increase in blood flow through circumflex branch of left coronary (Δ% ± standard error) [5, 7]: 37.7 ± 9.6 Δ%
- Mean change in blood pressure (ΔmmHg ± standard error) [5, 7]: -12.4 ± 2.3 ΔmmHg
- Change in heart rate (Δbeats/min. ± standard error) [5, 8]: -26.9 ± 3.8 Δbeats/min.
- Increase in blood flow through circumflex branch of left coronary (Δ% ± standard error) [5, 8]: 54.4 ± 11.3 Δ%
- Mean change in blood pressure (ΔmmHg ± standard error) [5, 8]: -11.0 ± 3.5 ΔmmHg
- Change in heart rate (Δbeats/min. ± standard error) [5, 9]: -26.4 ± 3.8 Δbeats/min.
- Increase in blood flow through circumflex branch of left coronary (Δ% ± standard error) [5, 9]: 50.7 ± 12.7 Δ%
- Mean change in blood pressure (ΔmmHg ± standard error) [5, 9]: -11.2 ± 3.9 ΔmmHg
- activation at 10 µg/heart [1]: 98.6 ± 10.6%
- LD50 at 72 h [2]: 1060 mg/kg
- Change in heart rate (Δbeats/min. ± standard error) [3]: -16.3 ± 3.2 Δbeats/min.
- Increase in coronary senus outflow (Δ% ± standard error) [3]: 74.4 ± 7.3 Δ%
- Mean change in blood pressure (ΔmmHg ± standard error) [3]: -14.5 ± 5.4 ΔmmHg
- Kb [4]: 37.2 nM

SMILES: COP(=O)(Cc1ccc(-c2nc3ccccc3s2)nc1)OC [2-(benzothiazol-2-yl)-5-dimethoxyphosphinylmethylpyridine]
- activation at 10 µg/heart [1]: 28.6 ± 3.8%

SMILES: COc1ccc([C@@H]2Sc3ccccc3N(CCN(C)C)C(=O)[C@@H]2OC(C)=O)cc1 [Diltiazem, reference compound]
- Change in heart rate (Δbeats/min. ± standard error) [5, 6]: 1.6 ± 2.0 Δbeats/min.
- Increase in blood flow through circumflex branch of left coronary (Δ% ± standard error) [5, 6]: 1.8 ± 1.8 Δ%
- Mean change in blood pressure (ΔmmHg ± standard error) [5, 6]: -2.4 ± 1.3 ΔmmHg
- Change in heart rate (Δbeats/min. ± standard error) [5, 7]: -13.2 ± 1.2 Δbeats/min.
- Increase in blood flow through circumflex branch of left coronary (Δ% ± standard error) [5, 7]: 34.4 ± 8.2 Δ%
- Mean change in blood pressure (ΔmmHg ± standard error) [5, 7]: -11.0 ± 1.3 ΔmmHg
- Increase in blood flow through circumflex branch of left coronary (Δ% ± standard error) [5, 8]: 33.0 ± 12.2 Δ%
- Mean change in blood pressure (ΔmmHg ± standard error) [5, 8]: -14.4 ± 2.3 ΔmmHg
- Change in heart rate (Δbeats/min. ± standard error) [5, 9]: -23.6 ± 4.0 Δbeats/min.
- Increase in blood flow through circumflex branch of left coronary (Δ% ± standard error) [5, 9]: 34.8 ± 15.1 Δ%
- Mean change in blood pressure (ΔmmHg ± standard error) [5, 9]: -16.0 ± 4.7 ΔmmHg
- activation at 10 µg/heart [1]: 66 ± 7.1%
- Change in heart rate (Δbeats/min. ± standard error) [3]: -20.5 ± 7.8 Δbeats/min.
- Increase in coronary senus outflow (Δ% ± standard error) [3]: 67.9 ± 8.5 Δ%
- Mean change in blood pressure (ΔmmHg ± standard error) [3]: -21.4 ± 6.1 ΔmmHg
